Experimental findings from PMC3025922 (BMC Biology, 2010) are described below.

In the experiment the test system is nuclear p27 in LNCaP-S14 cells. In kind it is cell-based, human.
Where [1] appears, read: primary screening, nuclear p27 in LNCaP-S14 cells.
[2] abbreviates: primary screening, S = strong, M = medium, W = weak by Z score.

Each structure is given as a SMILES string. Like-named read-outs stand apart in the source and are kept apart here.

With `O=C(OCn1ncc(Cl)c(Cl)c1=O)c1cccc(C(F)(F)F)c1` [567M11], the “Z score (aver)” value under setting [1] was 4.23. Further, the Clasf entry under setting [2] is listed as “M (medium (Z score 3-5))”.
As to `CCC1C=CC=CCC(C)C(O)C(C)(O)C(=O)C(C)C(O)C(C)C(=O)C(C)C(O)C(C)C=CC(=O)OC2C(C)C(CC1)OC1(CCC(C)C(CC(C)O)O1)C2C` (stereo not shown) [500B11], under setting [1], the “Z score (aver)” value is reported as 3.61. For the same compound, the Clasf entry under setting [2] is recorded as “M (medium (Z score 3-5))”.
The corresponding values for `C=C1C(=O)OC2C1CCC(C)=CCCC1(C)OC21` (stereo not shown) [1569N21] are 8.12 and “S (strong (Z score > 5))”.
In the same order, the values of `Oc1ccc(Cl)cc1Cc1cc(Cl)ccc1O` [501G22] are 4.38 and “M (medium (Z score 3-5))”.
In the same order, the values of `CS(=O)(=O)c1ccc(C=CC(=O)Nc2ccccn2)cc1` [518N17] are 4.22 and “M (medium (Z score 3-5))”.
For `COc1ccc(S(=O)(=O)Nc2cccc3cc(C(=O)NCc4ccc(Cl)cc4)[nH]c23)cc1` [522N16], under setting [1], the “Z score (aver)” value is given as 5.29. In addition, under setting [2], the Clasf entry is “S (strong (Z score > 5))”.
In the same order, the values of `C1CCC(C(CC2CCCCN2)C2CCCCC2)CC1.O=C(O)C=CC(=O)O` (stereo not shown) [1568J14] are 7.22 and “S (strong (Z score > 5))”.
The corresponding values for `O=C1C2C3c4ccccc4C(CO)(c4ccccc43)C2C(=O)N1c1ccc(Br)cc1` (stereo not shown) [1160E22] are 2.44 and “W (weak (Z score 2-3)”.
In the same order, the values of `COc1ccccc1CN(C(=O)Nc1ccc(F)cc1F)c1ccc2[nH]c(C(C)(C)C)cc2c1` [522J16] are 4.05 and “M (medium (Z score 3-5))”.
Consider `Clc1ccccc1C(c1ccccc1)(c1ccccc1)n1ccnc1` [1568F16], for which the Clasf entry is on record as “W (key: S: strong (Z score > 5); M: medium (Z score 3-5); W: weak (Z score 2-3)” and the “Z score (aver)” value amounted to 2.26.
With `O=c1[nH]c2ccccc2n1C1CCN(CCCC(c2ccc(F)cc2)c2ccc(F)cc2)CC1` [1568N18], the “Z score (aver)” value under setting [1] was determined as 2.26. Also, the Clasf entry under setting [2] is “W (weak (Z score 2-3)”.
In the same order, the values of `CC1CN(C(=O)c2cc(-c3ccc(Cl)cc3)cs2)CC(C)O1` (stereo not shown) [520H18] are 6.87 and “S (strong (Z score > 5))”.
The corresponding values for `CS(=O)(=O)c1ccc2[nH]c(C(=O)N3CCN(c4ncccc4C(F)(F)F)CC3)cc2c1` [519A06] are 2.71 and “W (weak (Z score 2-3)”.
For `CCC(C(=O)[O-])C1CCC(C)C(C(C)C(O)C(C)C(=O)C(CC)C2OC3(C=CC(O)C4(CCC(C)(C5CCC(O)(CC)C(C)O5)O4)O3)C(C)CC2C)O1.[Na+]` (stereo not shown) [502H07], under setting [1], the “Z score (aver)” value is recorded as 6.22. The Clasf entry under setting [2] was “S (strong (Z score > 5))”.
In the same order, the values of `CCN(CC)CCOC(=O)C(c1ccccc1)C1CCCCC1.Cl` (stereo not shown) [500G17] are 2.62 and “W (weak (Z score 2-3)”.
The corresponding values for `Fc1ccc(-c2cc(NC3CC3)nc(-c3ccncc3)n2)cc1` [1306K08] are 3.56 and “M (medium (Z score 3-5))”.
Consider `COc1ccc(S(=O)(=O)N(Cc2ccc(Cl)cc2)Cc2ccc3cc[nH]c3c2)cc1` [522N08], for which the “Z score (aver)” value under setting [1] is listed as 3.74. Moreover, the Clasf result under setting [2] was “M (medium (Z score 3-5))”.
The corresponding values for `C=CCNC1=C2CC(C)CC(OC)C(O)C(C)C=C(C)C(OC(N)=O)C(OC)C=CC=C(C)C(=O)NC(=CC1=O)C2=O` (stereo not shown) [1361H16] are 3.92 and “M (medium (Z score 3-5))”.
The corresponding values for `COc1ccc(OCC(=N)NC(=S)Nc2ccc(Cl)cc2)cc1` [1520B19] are 2.51 and “W (weak (Z score 2-3)”.
In the same order, the values of `CCC1(O)CC(OC2CC(N(C)C)C(OC3CC(O)C(OC4CCC(=O)C(C)O4)C(C)O3)C(C)O2)c2c(cc3c(c2O)C(=O)c2c(O)cccc2C3=O)C1C(=O)OC` (stereo not shown) [502B20] are 3.61 and “M (medium (Z score 3-5))”.
